Legend:
Type in all cases: in vivo
Heliothis virescens = Heliothis virescens (tobacco budworm) egg/artificial diet test; settings: 96 h, 200 ppm (concentration in well 18 ppm), eggs 0-24 h old on artificial diet, 4 days, egg mortality, larval mortality, growth regulation
Method: Heliothis virescens (Tobacco Budworm): Eggs (0-24 h old) were placed in 24-well microtiter plate on artificial diet and treated with test solutions at an application rate of 200 ppm (concentration in well 18 ppm) by pipetting. After an incubation period of 4 days, samples were checked for egg mortality, larval mortality and growth regulation.

Diabrotica balteata = Diabrotica balteata (corn root worm) artificial diet test; settings: 120 h, 200 ppm (concentration in well 18 ppm), L2 larvae, 5 days, larval mortality and growth regulation
Method: Diabrotica balteata (Corn Root Worm): A 24-well microtiter plate (MTP) with artificial diet was treated with test solutions at an application rate of 200 ppm (concentration in well 18 ppm) by pipetting. After drying, the MTP's were infested with larvae (L2) (6-10 per well). After an incubation period of 5 days, samples were checked for larval mortality, and growth regulation.

Thrips tabaci = Thrips tabaci (onion thrips) sunflower leaf disc test; settings: foliar, 168 h, 200 ppm sprayed on sunflower leaf discs, mixed ages, 7 days, mortality
Method: Thrips tabaci (Onion Thrips): Sunflower leaf discs were placed on agar in a 24-well microtiter plate and sprayed with test solutions at an application rate of 200 ppm. After drying, the leaf discs were infested with an […] population of mixed ages. After an incubation period of 7 days, samples were checked for mortality.

Tetranychus urticae = Tetranychus urticae (two-spotted spider mite) bean leaf disc test; settings: foliar, 192 h, 200 ppm sprayed on bean leaf discs, mixed ages, 8 days, egg, larval and adult mortality
Excerpt: Tetranychus urticae (Two-Spotted Spider Mite): Bean leaf discs on agar in 24-well microtiter plates were sprayed with test solutions at an application rate of 200 ppm. After drying, the leaf discs are infested with mite populations of mixed ages. 8 days later, discs are checked for egg mortality, larval mortality, and adult mortality.

Spodoptera littoralis = Spodoptera littoralis (Egyptian cotton leafworm) cotton leaf disc test; settings: foliar, 72 h, 200 ppm sprayed on cotton leaf discs, 5 L1 larvae, mortality, feeding behaviour, growth regulation 3 DAT
Excerpt: Spodoptera littoralis (Egyptian Cotton Leafworm): Cotton leaf discs were placed on agar in a 24-well microtiter plate and sprayed with test solutions at an application rate of 200 ppm. After drying, the leaf discs were infested with 5 L1 larvae. The samples were checked for mortality, feeding behaviour, and growth regulation 3 days after treatment (DAT).

Plutella xylostella = Plutella xylostella (diamond back moth) artificial diet test; settings: 144 h, 200 ppm (concentration in well 18 ppm), L2 larvae, 6 days, larval mortality and growth regulation
Method: Plutella xylostella (Diamond Back Moth): A 24-well microtiter plate (MTP) with artificial diet was treated with test solutions at an application rate of 200 ppm (concentration in well 18 ppm) by pipetting. After drying, the MTP's were infested with L2 larvae (7-12 per well). After an incubation period of 6 days, samples were checked for larval mortality and growth regulation.

Measured: pest or weed control at 200 ppm

Cc1cc(C#N)ccc1C(=O)Nc1cc(C(=O)Nc2c(C(F)(F)F)c(C(F)(F)C(F)(F)F)nn2C)ccc1C#N [Compound A1, 3-(4-cyano-2-methyl-Benzoyl) amino-4-cyano-N-(2-methyl-5-pentafluoroethyl-4-trifluoromethyl-2H-pyrazol-3-yl)-benzamide]
≥ 80%: Heliothis virescens | Diabrotica balteata | Thrips tabaci | Tetranychus urticae

Cn1nc(C(F)(F)C(F)(F)F)c(C(F)(F)F)c1NC(=O)c1ccc(C#N)c(NC(=O)c2ccccc2)c1 [Compound A2]
not listed: Tetranychus urticae
≥ 80%: all other assays above

Cn1nc(C(F)(F)C(F)(F)F)c(C(F)(F)F)c1NC(=O)c1cccc(NC(=O)c2ccccc2)c1F [Compound B16]
≥ 80%: all assays above

Cn1nc(C(F)(F)C(F)(F)F)c(C(F)(F)F)c1NC(=O)c1cccc(NC(=O)c2ccccc2F)c1 [Compound D1]
not listed: Tetranychus urticae
≥ 80%: all other assays above

Cn1nc(C(F)(F)C(F)(F)F)c(C(F)(F)F)c1NC(=O)c1cccc(NC(=O)c2ccccc2Cl)c1 [Compound D3]
not listed: Tetranychus urticae
≥ 80%: all other assays above

Cn1nc(C(F)(F)C(F)(F)F)c(C(F)(F)F)c1NC(=O)c1cccc(NC(=O)c2cc(Cl)ccc2F)c1 [Compound D8]
≥ 80%: all assays above

Cn1nc(C(F)(F)C(F)(F)F)c(C(F)(F)F)c1NC(=O)c1cccc(NC(=O)c2ccc([N+](=O)[O-])cc2Cl)c1 [Compound D9]
≥ 80%: Diabrotica balteata | Thrips tabaci | Tetranychus urticae

Cn1nc(C(F)(F)C(F)(F)F)c(C(F)(F)F)c1NC(=O)c1cccc(NC(=O)c2ccc(C(F)(F)F)cc2)c1 [Compound D13]
not listed: Tetranychus urticae
≥ 80%: all other assays above

Cn1nc(C(F)(F)C(F)(F)F)c(C(F)(F)F)c1NC(=O)c1cccc(NC(=O)c2ccccc2)c1 [Compound D16]
≥ 80%: Spodoptera littoralis | Plutella xylostella | Diabrotica balteata | Thrips tabaci

Cn1nc(C(F)(F)C(F)(F)F)c(C(F)(F)F)c1NC(=O)c1cccc(NC(=O)c2ccc(F)cc2)c1 [Compound D17]
not listed: Heliothis virescens
≥ 80%: all other assays above

Cn1nc(C(F)(F)C(F)(F)F)c(C(F)(F)F)c1NC(=O)c1cccc(NC(=O)c2ccc(F)cc2Cl)c1 [Compound D19]
not listed: Heliothis virescens
≥ 80%: all other assays above

Cn1nc(C(F)(F)C(F)(F)F)c(C(F)(F)F)c1NC(=O)c1cccc(NC(=O)c2cccc(F)c2F)c1 [Compound D21]
not listed: Tetranychus urticae
≥ 80%: all other assays above

Cn1nc(C(F)(F)C(F)(F)F)c(C(F)(F)F)c1NC(=O)c1cccc(NC(=O)c2ccc(F)cc2F)c1 [Compound D22]
not listed: Tetranychus urticae
≥ 80%: all other assays above
